The target of one data set is T1, Prune1 (Homo sapiens, UniProt Q86TP1).
T1 construct: endogenous in cells; host or cells: D425-MED cells
T1 sequence (Q86TP1 1-453): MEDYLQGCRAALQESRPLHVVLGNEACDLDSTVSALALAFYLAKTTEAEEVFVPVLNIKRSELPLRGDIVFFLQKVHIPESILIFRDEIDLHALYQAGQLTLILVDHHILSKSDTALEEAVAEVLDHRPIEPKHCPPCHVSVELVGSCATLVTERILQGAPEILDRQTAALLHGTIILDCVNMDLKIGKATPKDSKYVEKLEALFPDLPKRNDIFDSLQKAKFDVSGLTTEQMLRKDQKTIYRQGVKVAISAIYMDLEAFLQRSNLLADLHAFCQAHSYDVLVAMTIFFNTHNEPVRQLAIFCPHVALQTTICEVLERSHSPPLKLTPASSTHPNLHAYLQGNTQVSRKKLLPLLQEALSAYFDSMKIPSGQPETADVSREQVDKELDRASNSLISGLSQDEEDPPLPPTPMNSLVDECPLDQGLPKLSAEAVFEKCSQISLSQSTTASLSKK
Nature of the data set: Immunoblotting and densitometry of Prune1 in D425-MED cells. Format: cell-based. As to the method: D425.MED and MMTV-Prune1/Wnt1 cells were plated and treated with increasing concentrations of LEO-AA7.5(S)T for 24 hours. Water-treated cells were used as negative control for the experiments.
Cells for immunoblotting analysis were washed in cold PBS and lysed in cell lysis buffer [20 mM sodium phosphate (pH 7.4), 150 mM NaCl, 10% (v/v) glycerol, 1% (w/v) sodium deoxycholate, 1% (v/v) Triton X-100] supplemented with protease inhibitors (Roche). The resulting cell lysates were cleared by centrifugation at 16,200g for 10 min at room temperature, and the supernatants were re- moved and assayed for protein concentrations with the Protein Assay Dye Reagent (Bio-Rad). The cell lysates (30 µg) were resolved by SDS-polyacrylamide gel electrophoresis (SDS-PAGE) gels of different percentages, which depended on the molecular weights of the proteins of interest. The proteins were then electrophoretically transferred to polyvinylidene difluoride (PVDF) membranes (Millipore). After 1 hour in blocking solution with 5% (w/v) dry milk fat in PBS or 5% (w/v) BSA (Sigma-Aldrich) in tris-buffered saline [both of which contained 0.02% (v/v) Tween 20] […] The peak areas of the bands were measured on the densitometry plots, and the relative proportions (percentages) were calculated. […]

In data set [1] the test system is MATH1-Prune1/TP53-/- cells. Nature of the data set: Mouse cytokine antibody array on conditioned media. Format: cell-based, murine. The settings on record: 10 µM, 24 hours; n.61 cytokines measured. Here is the method:
The conditioned media collected from three different vehicle- or 10 µM LEO-AA7.5(S)T-treated MATH1-Prune1/TP53-/- cells after 24 hours were pooled. The relative levels of cytokines in the pooled conditioned media and murine sera were measured (RayBio C-Series Mouse Cytokine Antibody Array C3 [AAM-CYT-3-2]), according to the manufacturer protocol. Densitometric analysis was carried out using the Quantity One software (BioRad). Expression levels were normalized to the levels of the positive control spots (contained within the membrane). For each cytokine, the mean ±standard error was determined.

Another data set is described as follows: Acute toxicity in vivo. The settings on record: for hepatotoxicity or nephrotoxicity (glutamate-pyruvate transaminase 1, creatinine blood levels, blood urea nitrogen): HCl salt. Set-up: species or system FVB mice. As to the method: The toxicity of LEO-AA7.5(S)T was determined with 4-week-old FVB mice grouped according to body weight. Escalating doses of LEO-AA7.5(S)T (60mg or 120mg/kg/day) or vehicle (water) were administered intraperitoneally, daily for 12 days. At sacrifice, the blood and organs were collected and evaluated. Haematological and biochemical markers of hepatic and renal functions were evaluated. Data are expressed as means from four mice within each treatment group.

Another data set deals with MATH1-Prune1/ TP53-/-. The data set is described as follows: Orthotopic implantation of MATH1-Prune1/TP53-/- cells in immunocompetent syngeneic mice, survival analysis. Format: in vivo, FVB WT mice. As to the method:
MATH1-Prune1/ TP53-/- were implanted into the right cerebellar hemisphere of female (n.24) immunocompetent syngeneic mice model (5 weeks old, strain: FVB WT). to establish intracerebellar MATH1-Prune1/ TP53-/- models, mice were anaesthetised with Ketamine/ Xylazine (87.5 mg/kg, 12.5 mg/kg, respectively). The mice were then placed in a stereotactic frame by hooking their incisors onto the frame hold. […] The mice were monitored daily for development of potential neurological deficits. For LEO-AA7.5(S)T in-vivo treatment, starting after 10 days from tumour implantation (i.e., once the tumours were established) the mice (grouped according to body weight values) were injected intraperitoneally with LEO-AA7.5(S)T at 6 mg/kg/day, or with water as the vehicle for the control group. mouse body weights were measured at the indicated time points. Mouse survival was closely monitored during the entire experimental period.

Where [2] appears, read: 60 and 120 mg/kg intraperitoneally, daily for 12 days.

For `COc1ccc(CNc2ncnc(N3CCC[C@H](CO)C3)n2)cc1.Cl` [LEO-AA7.5(S)T, (S)-(1-(4-((4-methoxybenzyl)amino)-1,3,5-triazin-2-yl)piperidin-3-yl)methanol HCl salt], the “dose effective on Prune1 target inhibition/degradation in vitro, lower than AA7.1” value at Prune1 (10 µM vs 100 µM AA7.1) stood at 10 fold. This compound also had a Prune1 protein levels on Prune1 (D425-Med cells, 10 µM, 24 hours, densitometry relative to vehicle) of 0.6 fold. In data set [1], the “number of cytokines/ chemokines significantly downregulated in the conditioned media” value is 10. In the data set “Acute toxicity in vivo” (60mg or 120mg/kg/day intraperitoneally for 12 days), the “liver, spleen and kidney weight, treated vs controls” value was “no decrease”. Moreover, in “Acute toxicity in vivo” (setting [2]), the “haematological parameters (e.g. white blood cell count)” value was “no significant variations”; the immediate toxicity effects entry was “no immediate toxicity effects”; the “hepatotoxicity or nephrotoxicity (glutamate-pyruvate transaminase 1, creatinine blood levels, blood urea nitrogen)” value was “absence of drug-induced hepatotoxicity and renal failure”. In “Acute toxicity in vivo” (60 and 120 mg/kg intraperitoneally, daily for 12 days, listed as (S)-(1-(4-((4-methoxybenzyl)amino)-1,3,5-triazin-2-yl)piperidin-3-yl)methanol HC), the “hepatotoxicity or nephrotoxicity (glutamate-pyruvate transaminase 1, creatinine blood levels, blood urea nitrogen)” value is on record as “no signs of hepatotoxicity or nephrotoxicity”. In addition, in the data set on MATH1-Prune1/ TP53-/- (6 mg/kg/day intraperitoneally), the “toxic effects (body weight)” value was “no toxic effects”. For the same compound, the overall survival result in the data set on MATH1-Prune1/ TP53-/- (6 mg/kg/day intraperitoneally from day 10 after implantation) is recorded as “improved overall survival”.

(Values after EP4361137A1, “PRUNE1 INHIBITORS AND THERAPEUTIC USE THEREOF” (CEINGE Biotecnologie Avanzate Franco Salvatore s.c. a r.l., priority 2022, dated 2024).)
